# Measurements as given in patent US9353082B2, “Pharmaceutical compounds” (BIAL—PORTELA & CA, S.A., priority 2008, dated 2016).
# Tests used:
# FAAH [1] = biological target: T1, FAAH (Mus musculus, UniProt O08914); test: In vivo FAAH inhibition after oral dosing, remaining activity in liver homogenate (LVh, peripheral tissue); parameters: species or system NMRI mice; details: liver homogenate, 3 mg/kg, 8 h
# T1 construct: A fragment of liver, left lung lobe and brain without cerebellum were removed; from tissue; host or cells: male NMRI mice; brain (without cerebellum) and liver homogenates
# T1 sequence (O08914 1-579): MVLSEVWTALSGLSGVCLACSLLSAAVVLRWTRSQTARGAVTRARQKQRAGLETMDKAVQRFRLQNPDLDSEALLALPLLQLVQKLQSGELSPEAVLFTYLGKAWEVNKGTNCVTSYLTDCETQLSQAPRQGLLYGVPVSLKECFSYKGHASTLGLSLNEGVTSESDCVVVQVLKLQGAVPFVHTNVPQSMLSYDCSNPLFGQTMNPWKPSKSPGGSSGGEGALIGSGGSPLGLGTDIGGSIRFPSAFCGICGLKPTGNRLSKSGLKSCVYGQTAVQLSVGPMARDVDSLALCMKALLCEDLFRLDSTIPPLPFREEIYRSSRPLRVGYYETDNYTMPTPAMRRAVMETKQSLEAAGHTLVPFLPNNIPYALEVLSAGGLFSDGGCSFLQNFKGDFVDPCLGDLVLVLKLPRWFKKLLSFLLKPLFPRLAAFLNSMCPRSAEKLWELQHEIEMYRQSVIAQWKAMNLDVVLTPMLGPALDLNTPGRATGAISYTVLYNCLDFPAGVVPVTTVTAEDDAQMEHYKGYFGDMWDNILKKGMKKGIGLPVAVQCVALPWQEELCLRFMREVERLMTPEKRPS
# Procedure, shortened: (§1)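 Remaining FAAH activity is given as % of vehicle-treated controls after blank subtraction, measured by radiolabelled AEA hydrolysis (2 μM AEA, 5 nM 3H-AEA, 37 °C) in brain (10 min) or liver (7 min) homogenates. These came from fasted male NMRI mice dosed orally at 30 or 3 mg/kg.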
# FAAH [2] = biological target: T1, FAAH; test: In vivo FAAH inhibition after oral dosing, remaining activity in brain homogenate (BRh, central nervous tissue); parameters: species or system NMRI mice; details: brain homogenate, 3 mg/kg, 8 h
# Procedure, shortened: as §1
# FAAH [3] = biological target: T2, FAAH (Rattus norvegicus, UniProt P97612); test: In vitro FAAH activity in rat brain membranes, 3H-AEA substrate, % of control; assay type: biochemical, Wistar rats; details: 100 nM test compound, low value = strong inhibitor
# T2 construct: Frozen brains (without cerebellum) from Wistar rats were used; from tissue; host or cells: Wistar rat brain (without cerebellum), washed membrane pellets
# T2 sequence (P97612 1-579): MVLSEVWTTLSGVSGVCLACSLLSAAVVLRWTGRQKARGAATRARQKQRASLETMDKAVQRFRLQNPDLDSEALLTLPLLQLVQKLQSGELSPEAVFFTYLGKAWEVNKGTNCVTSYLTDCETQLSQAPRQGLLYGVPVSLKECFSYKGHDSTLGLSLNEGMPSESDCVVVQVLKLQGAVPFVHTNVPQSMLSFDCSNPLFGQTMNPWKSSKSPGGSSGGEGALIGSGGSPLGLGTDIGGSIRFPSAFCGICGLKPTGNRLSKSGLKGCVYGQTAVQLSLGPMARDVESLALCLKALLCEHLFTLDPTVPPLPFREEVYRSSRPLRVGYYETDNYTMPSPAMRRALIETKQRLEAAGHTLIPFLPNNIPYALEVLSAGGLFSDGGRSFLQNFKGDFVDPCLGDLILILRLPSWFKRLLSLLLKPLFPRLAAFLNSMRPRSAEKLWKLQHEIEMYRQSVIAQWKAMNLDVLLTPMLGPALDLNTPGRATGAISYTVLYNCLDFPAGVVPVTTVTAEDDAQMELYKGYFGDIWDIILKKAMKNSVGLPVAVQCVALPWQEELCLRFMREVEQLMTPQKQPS
# Procedure, shortened: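 FAAH activity measured as 3H-ethanolamine released from 2 μM [3H]AEA over 10 min by rat brain membrane preparation, after 15 min 37 °C preincubation with test compound at 10 or 0.1 μM. Charcoal-separated supernatant scintillation-counted; values expressed as % of control minus no-protein blank.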
SMILES,"In Vivo LVh 3 mg/kg 8 h, remaining FAAH activity (FAAH [1])","In Vivo BRh 3 mg/kg 8 h, remaining FAAH activity (FAAH [2])","In Vitro FAAH activity, 100 nM (FAAH [3])"
"COc1ccc(OCCN(C)C(=O)n2nnc3ccccc32)cc1 [Compound 157, N-(2-(4-methoxyphenoxy)ethyl)-N-methyl-1H-benzo[d][1,2,3]triazole-1-carboxamide]",3.5 % of control,5.2 % of control,0 % of control
"Cl.O=C(N1CCN(Cc2ccccc2)CC1)n1cnc(-c2cccs2)n1 [Compound 158, (4-benzylpiperazin-1-yl)(3-(thiophen-2-yl)-1H-1,2,4-triazol-1-yl)methanone hydrochloride]",85.6 % of control,92 % of control,0.3 % of control
"CC1(C)COCN1C(=O)n1nnc2ccc(Br)cc21 [Compound 162, (6-bromo-1H-benzo[d][1,2,3]triazol-1-yl)(4,4-dimethyloxazolidin-3-yl)methanone]",3.1 % of control,0.9 % of control,0 % of control
"O=C(N1CCS(=O)(=O)C1)n1nnc2ccccc21 [Compound 167, 1-[(1,1-dioxido-1,3-thiazolidin-3-yl)carbonyl]-1H-benzotriazole]",104 % of control,99.9 % of control,96.2 % of control
"O=C(N1CCN(c2ccccc2)CC1)n1cnc(Cc2ccccc2)n1 [Compound 182, (3-benzyl-1H-1,2,4-triazol-1-yl)(4-phenylpiperazin-1-yl)methanone]",111 % of control,90.6 % of control,0.6 % of control
"CC1(C)COCN1C(=O)n1cnc(-c2ccc(Cl)cc2)c1 [Compound 186, (4-(4-chlorophenyl)-1H-imidazol-1-yl)(4,4-dimethyloxazolidin-3-yl)methanone]",37.7 % of control,78.7 % of control,96.5 % of control
"CC1(C)COCN1C(=O)n1cnc(-c2ccc(Oc3ccc(C(N)=O)cc3)cc2)n1 [Compound 187, 4-(4-(1-(4,4-dimethyloxazolidine-3-carbonyl)-1H-1,2,4-triazol-3-yl)phenoxy)benzamide]",108.6 % of control,85.6 % of control,92.8 % of control
"CC1(C)COCN1C(=O)n1cnc(-c2ccc(Cl)cc2)n1 [Compound 189, (3-(4-chlorophenyl)-1H-1,2,4-triazol-1-yl)(4,4-dimethyloxazolidin-3-yl)methanone]",87.6 % of control,105.9 % of control,98.5 % of control
"CN(Cc1ccccc1)C(=O)n1cnc(-c2cccc3ccccc23)n1 [Compound 191, N-benzyl-N-methyl-3-(naphthalen-1-yl)-1H-1,2,4-triazole-1-carboxamide]",20.8 % of control,60 % of control,21 % of control
"O=C(N1CCN(c2ccccc2)CC1)n1cnc(-c2cccc(-c3ccccc3)c2)c1 [Compound 196, (4-(biphenyl-3-yl)-1H-imidazol-1-yl)(4-phenylpiperazin-1-yl)methanone]",78.3 % of control,88.1 % of control,2.5 % of control
"CN(C(=O)n1cnc(-c2ccc(N)cc2)c1)c1ccccc1 [Compound 199, 4-(4-aminophenyl)-N-methyl-N-phenyl-1H-imidazole-1-carboxamide]",19.7 % of control,45.9 % of control,89 % of control
"CN(C(=O)n1cnc(-c2ccc(OCCN3CCNCC3)cc2)c1)c1ccccc1.Cl.Cl [Compound 203, N-methyl-N-phenyl-4-(4-(2-(piperazin-1-yl)ethoxy)phenyl)-1H-imidazole-1-carboxamide dihydrochloride]",64.3 % of control,101.8 % of control,93.5 % of control
"NC(=O)c1ccc(Oc2cccc(-c3ncn(C(=O)N4CCN(c5ccccc5)CC4)n3)c2)cc1 [Compound 208, 4-(3-(1-(4-phenylpiperazine-1-carbonyl)-1H-1,2,4-triazol-3-yl)phenoxy)benzamide]",96.7 % of control,97.2 % of control,0.2 % of control
"CC1(C)COCN1C(=O)n1cnc(-c2cccs2)n1 [Compound 213, (4,4-dimethyloxazolidin-3-yl)(3-(thiophen-2-yl)-1H-1,2,4-triazol-1-yl)methanone]",6.9 % of control,53.7 % of control,105.6 % of control

# More lines, now with the values ahead:
"In Vivo LVh 3 mg/kg 8 h, remaining FAAH activity (FAAH [1])","In Vivo BRh 3 mg/kg 8 h, remaining FAAH activity (FAAH [2])","In Vitro FAAH activity, 100 nM (FAAH [3])",SMILES
24.4 % of control,67.2 % of control,0.1 % of control,"CN(CCOCc1ccccc1)C(=O)n1nnc2ccccc21 [Compound 156, N-(2-(benzyloxy)ethyl)-N-methyl-1H-benzo[d][1,2,3]triazole-1-carboxamide]"
2.4 % of control,6.3 % of control,0.6 % of control,"CC1(C)COCN1C(=O)n1nnc2ccc(-c3cccc(C(N)=O)c3)cc21 [Compound 163, 3-(3-(4,4-dimethyloxazolidine-3-carbonyl)-3H-benzo[d][1,2,3]triazol-5-yl)benzamide]"
78.1 % of control,92.4 % of control,102 % of control,"CC1(C)COCN1C(=O)n1cnc(-c2ccc(F)cc2F)n1 [Compound 183, (3-(2,4-difluorophenyl)-1H-1,2,4-triazol-1-yl)(4,4-dimethyloxazolidin-3-yl)methanone]"
89 % of control,78.7 % of control,103.3 % of control,"COc1ccc(-c2ncn(C(=O)N3COCC3(C)C)n2)cc1 [Compound 188, (4,4-dimethyloxazolidin-3-yl)(3-(4-methoxyphenyl)-1H-1,2,4-triazol-1-yl)methanone]"
5.7 % of control,9.1 % of control,15.7 % of control,"C[C@@H](c1ccccc1)N(C)C(=O)n1nnc2ccccc21 [Compound 195, (S)—N-methyl-N-(1-phenylethyl)-1H-benzo[d][1,2,3]triazole-1-carboxamide]"
70.1 % of control,99.8 % of control,101.5 % of control,"CC1(C)COCN1C(=O)n1cnc(-c2cccc(Oc3ccc(C(N)=O)cc3)c2)n1 [Compound 209, 4-(3-(1-(4,4-dimethyloxazolidine-3-carbonyl)-1H-1,2,4-triazol-3-yl)phenoxy)benzamide]"
